These results are taken from US20260200892A1, “CANNABINOID RECEPTOR 2 MODULATORS” (Hoffmann-La Roche Inc., priority 2023, published 2026).

One may read the pKd as the negative decadic logarithm of the Kd, by convention in mol/L. The pEC50 is the EC50 on a negative log10 scale, so that one unit is a factor of ten. Higher therefore signals a low EC50.

Molecules are shown by their SMILES. pEC50, pKd: −log10 of the molar value.

In assay [1] the target is T1, CB2 receptor (hCB2R), CHO cell line stably overexpressing CB2 receptor (Homo sapiens, UniProt P34972).
T1 construct: expressed in transfected cells; host or cells: CHO cell line stably overexpressing CB2 receptor (G418 selection)
T1 sequence (P34972 whole entry): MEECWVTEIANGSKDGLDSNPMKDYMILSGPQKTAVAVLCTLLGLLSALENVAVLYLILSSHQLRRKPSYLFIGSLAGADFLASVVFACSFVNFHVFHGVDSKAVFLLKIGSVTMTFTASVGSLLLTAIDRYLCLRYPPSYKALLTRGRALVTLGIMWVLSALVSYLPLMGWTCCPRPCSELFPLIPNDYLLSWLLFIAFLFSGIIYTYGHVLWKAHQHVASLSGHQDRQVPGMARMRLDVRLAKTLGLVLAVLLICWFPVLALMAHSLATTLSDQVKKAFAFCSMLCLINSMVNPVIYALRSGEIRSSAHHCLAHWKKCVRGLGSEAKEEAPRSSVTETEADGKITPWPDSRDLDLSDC
As to the kind of experiment: cAMP hCB2R functional assay (HTRF). Format: cell-based. To be noted: CHO cells overexpressing CB2 receptor, forskolin; for Functionality: normalized to Emax of CP55940 (100%); for pEC50: means ± SEM of 2-3 independent experiments. The protocol: cAMP hCB2R Functional Assay
The Homogeneous Time Resolved Fluorescence (HTRF) Assays
The homogeneous time-resolved fluorescence (HTRF) cAMP assay was conducted according to the manufacturer's protocol for the cAMP-Gs Dynamic kit (Cisbio). Briefly, the CHO cell line stably overexpressing CB2 receptor were maintained in Ham's F12 supplemented with 10% FBS, 100 U/ml penicillin and 100 μg/ml streptomycin (Gibco-ThermoFisher) and 400 μg/ml G418 (ThermoFisher). For CB2 compounds test, harvest the cells with Cell Dissociation Buffer and re-suspend the cells in F-12 K at 0.4*10^6 cells/mL, and dispense cells into 384-well low volume plates at 2000 cells/5 μL per well. The cells were stimulated with compounds diluted in Stimulation Buffer (2.5 μL/well) for 15 min at room temperature. And then followed by the addition of 2.5 μL 25 μM forsklin. After 15 mins incubation, reactions were stopped by 5 μL/well cAMP-d2 conjugate working solution followed by 5 μL/well of anti-cAMP cryptate working solution. After incubation for 1 h at room temperature, the plates were read in a PerkinElmer Envision reader for time-resolved fluorescence resonance energy transfer detection at 620 nm and 665 nm.
Quantification and Statistical Analysis
All HTRF ratio data sets of test compounds were normalized to the Emax of CP55940 (100%) and obtained the means±standard error of the mean (SEM) of 2-3 independent experiments performed in technical replicates.
Background: TR-FRET usually uses a lanthanide donor and a delayed reading to cut background.

The target in another assay is hCB1R (Homo sapiens, UniProt P21554). As to the kind of experiment: hCB1R binding (Kd hCB1R, Table 1).
hCB1R, sequence (P21554 whole entry): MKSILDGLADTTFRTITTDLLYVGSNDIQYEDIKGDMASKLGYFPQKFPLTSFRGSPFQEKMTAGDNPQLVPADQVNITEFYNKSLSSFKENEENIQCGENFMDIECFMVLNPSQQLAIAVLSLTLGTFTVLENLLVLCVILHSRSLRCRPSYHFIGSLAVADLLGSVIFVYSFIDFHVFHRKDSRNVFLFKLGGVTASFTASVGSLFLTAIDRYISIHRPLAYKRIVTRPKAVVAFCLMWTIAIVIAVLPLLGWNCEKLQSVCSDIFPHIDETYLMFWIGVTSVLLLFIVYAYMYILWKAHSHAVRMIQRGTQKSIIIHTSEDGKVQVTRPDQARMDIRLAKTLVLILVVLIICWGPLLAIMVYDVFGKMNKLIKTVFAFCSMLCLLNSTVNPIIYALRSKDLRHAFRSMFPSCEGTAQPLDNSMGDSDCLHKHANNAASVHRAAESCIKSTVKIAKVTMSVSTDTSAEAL
Assay [2] deals with T2, human CB2 receptor (hCB2R) (Homo sapiens, UniProt P34972).
T2 construct: expressed in transfected cells; membranes
T2 sequence (P34972 whole entry): as the sequence (P34972 whole entry) above
Nature of the assay: TR-FRET hCB2R binding assay. To be noted: TR-FRET, membranes of SNAP-tagged human CB2R HEK293-TR cells, 100 μM GppNHp, nonspecific binding with SR144528; read-out: Kd hCB2R.

For `CCCCC[C@@H](CC)C(C)(C)c1cc(OC)c([C@H]2C=C(CO)[C@H]3C[C@@H]2C3(C)C)c(OC)c1` (single isomer, unassigned) [Example 4], in assay [1], the Functionality result is “antagonist”. The pKd at hCB1R is 5.66; in assay [2], 9.01.

`CCCCC[C@@H](C(F)(F)F)C(C)(C)c1cc(OC)c([C@H]2C=C(CO)[C@H]3C[C@@H]2C3(C)C)c(OC)c1` [Example 1, ((1S,4S,5S)-4-(2,6-dimethoxy-4-((R)-2-methyl-3-(trifluoromethyl)octan-2-yl)phenyl)-6,6-dimethylbicyclo[3.1.1]hept-2-en-2-yl)methanol]: the Functionality entry in assay [1] is on record as “antagonist”. Also, the negative-log Kd (pKd) on hCB1R is 4.93; in assay [2] it was 6.22.

In assay [1], `CCCCC[C@H](C(F)(F)F)C(C)(C)c1cc(OC)c([C@H]2C=C(CO)[C@H]3C[C@@H]2C3(C)C)c(OC)c1` [Example 2, ((1S,4S,5S)-4-(2,6-dimethoxy-4-((S)-2-methyl-3-(trifluoromethyl)octan-2-yl)phenyl)-6,6-dimethylbicyclo[3.1.1]hept-2-en-2-yl)methanol] gave a pEC50 of 7.93. The Functionality entry in assay [1] is on record as “agonist”. Moreover, the pKd at hCB1R was 5.19; in assay [2] it was 8.00.

The compound `CCCCCC(CC)C(C)(C)c1cc(OC)c([C@H]2C=C(CO)[C@H]3C[C@@H]2C3(C)C)c(OC)c1` (stereo partly drawn) [Example 3, ((1S,4S,5S)-4-(4-(3-ethyl-2-methyloctan-2-yl)-2,6-dimethoxyphenyl)-6,6-dimethylbicyclo[3.1.1]hept-2-en-2-yl)methanol] had a negative-log EC50 (pEC50) in assay [1] of 7.00. Moreover, the Functionality entry in assay [1] was “partial agonist”. Further, the results for the pKd (on hCB1R; in assay [2]) were 4.89 and 9.25, respectively.

As for `CCCCCC(CCC)C(C)(C)c1cc(OC)c([C@H]2C=C(CO)[C@H]3C[C@@H]2C3(C)C)c(OC)c1` (stereo partly drawn) [Example 5, ((1S,4S,5S)-4-(2,6-dimethoxy-4-(2-methyl-3-propyloctan-2-yl)phenyl)-6,6-dimethylbicyclo[3.1.1]hept-2-en-2-yl)methanol], in assay [1], the pEC50 is 6.95 and the Functionality result was “inverse agonist”. The same compound showed a pKd on hCB1R of 5.17. For the same compound, in assay [2], the pKd was 7.13.

For the compound `CCCCCC(C(C)C)C(C)(C)c1cc(OC)c([C@H]2C=C(CO)[C@H]3C[C@@H]2C3(C)C)c(OC)c1` (stereo partly drawn) [Example 6, ((1S,4S,5S)-4-(4-(3-isopropyl-2-methyloctan-2-yl)-2,6-dimethoxyphenyl)-6,6-dimethylbicyclo[3.1.1]hept-2-en-2-yl)methanol], the Functionality result in assay [1] is recorded as “antagonist”. For the same compound, the pKd is 5.15 on hCB1R and 8.21 in assay [2].

Regarding `CCCCC[C@H](c1ccccc1)C(C)(C)c1cc(OC)c([C@H]2C=C(CO)[C@H]3C[C@@H]2C3(C)C)c(OC)c1` [Example 7, ((1S,4S,5S)-4-(2,6-dimethoxy-4-((R)-2-methyl-3-phenyloctan-2-yl)phenyl)-6,6-dimethylbicyclo[3.1.1]hept-2-en-2-yl)methanol], in assay [1], the pEC50 was 6.38. For the same compound, the Functionality entry in assay [1] is given as “inverse agonist”. Further, the pKd is 5.98 at hCB1R and 6.71 in assay [2].

Consider `CCCCC[C@@H](c1ccccc1)C(C)(C)c1cc(OC)c([C@H]2C=C(CO)[C@H]3C[C@@H]2C3(C)C)c(OC)c1` [Example 8, ((1S,4S,5S)-4-(2,6-dimethoxy-4-((S)-2-methyl-3-phenyloctan-2-yl)phenyl)-6,6-dimethylbicyclo[3.1.1]hept-2-en-2-yl)methanol], for which, in assay [1], the pEC50 is 6.52 and the Functionality result was “inverse agonist”. The pKd on hCB1R is 6.15. In assay [2], the negative-log Kd (pKd) was 8.35.

`CCCCC[C@H](c1ccc(F)cc1)C(C)(C)c1cc(OC)c([C@H]2C=C(CO)[C@H]3C[C@@H]2C3(C)C)c(OC)c1` [Example 9, ((1S,4S,5S)-4-(4-((R)-3-(4-fluorophenyl)-2-methyloctan-2-yl)-2,6-dimethoxyphenyl)-6,6-dimethylbicyclo[3.1.1]hept-2-en-2-yl)methanol]: in assay [1], the Functionality entry is reported as “antagonist”. Moreover, the pKd on hCB1R is 5.83; in assay [2], 5.94.

As to `CCCCC[C@@H](c1ccc(F)cc1)C(C)(C)c1cc(OC)c([C@H]2C=C(CO)[C@H]3C[C@@H]2C3(C)C)c(OC)c1` [Example 10, ((1S,4S,5S)-4-(4-((S)-3-(4-fluorophenyl)-2-methyloctan-2-yl)-2,6-dimethoxyphenyl)-6,6-dimethylbicyclo[3.1.1]hept-2-en-2-yl)methanol], the Functionality entry in assay [1] is listed as “antagonist”. For the same compound, the pKd on hCB1R is 5.75; in assay [2], 6.52.

Turning to `CCCCC[C@H](c1cccc(F)c1)C(C)(C)c1cc(OC)c([C@H]2C=C(CO)[C@H]3C[C@@H]2C3(C)C)c(OC)c1` [Example 11, ((1S,4S,5S)-4-(4-((R)-3-(3-fluorophenyl)-2-methyloctan-2-yl)-2,6-dimethoxyphenyl)-6,6-dimethylbicyclo[3.1.1]hept-2-en-2-yl)methanol], in assay [1], the pEC50 is 5.63 and the Functionality entry was “inverse agonist”. On hCB1R, this compound gave a pKd of 5.57. Moreover, in assay [2], the negative-log Kd (pKd) is 6.45.

Compound `CCCCC[C@@H](c1cccc(F)c1)C(C)(C)c1cc(OC)c([C@H]2C=C(CO)[C@H]3C[C@@H]2C3(C)C)c(OC)c1` [Example 12, ((1S,4S,5S)-4-(4-((S)-3-(3-fluorophenyl)-2-methyloctan-2-yl)-2,6-dimethoxyphenyl)-6,6-dimethylbicyclo[3.1.1]hept-2-en-2-yl)methanol] showed a pEC50 in assay [1] of 6.68. Besides, the Functionality entry in assay [1] is “inverse agonist”. The pKd at hCB1R was 5.71; in assay [2] it was 7.52.

For `CCN(CC)c1ccc2cc(/C=C/c3ccc(S(=O)(=O)[O-])c[n+]3CCCCCC(=O)NCC3=C[C@H](c4c(OC)cc(C(C)(C)[C@H](CCCCCN=[N+]=[N-])c5ccccc5)cc4OC)[C@@H]4C[C@H]3C4(C)C)c(=O)oc2c1` [Example 22, 1-(6-((((1S,4S,5S)-4-(4-((R)-8-azido-2-methyl-3-phenyloctan-2-yl)-2,6-dimethoxyphenyl)-6,6-dimethylbicyclo[3.1.1]hept-2-en-2-yl)methyl)amino)-6-oxohexyl)-6-((E)-2-(7-(diethylamino)-2-oxo-2H-chromen-3-yl)vinyl)pyridin-1-ium-3-sulfonate], in assay [1], the pEC50 is 7.15 and the Functionality entry is “inverse agonist”. The same compound had a pKd on hCB1R of 5.76. Further, the negative logarithm of the Kd (pKd) in assay [2] was 7.99.

Turning to `COc1cc(C(C)(C)[C@H](CCCCCN=[N+]=[N-])c2ccccc2)cc(OC)c1[C@H]1C=C(CNC(=O)CCCCCCNc2ccc([N+](=O)[O-])c3nonc23)[C@H]2C[C@@H]1C2(C)C` [Example 24, N-(((1S,4S,5S)-4-(4-((R)-8-azido-2-methyl-3-phenyloctan-2-yl)-2,6-dimethoxyphenyl)-6,6-dimethylbicyclo[3.1.1]hept-2-en-2-yl)methyl)-7-((7-nitrobenzo [c][1,2,5]oxadiazol-4-yl)amino)heptanamide], in assay [1], the pEC50 is 5.91 and the Functionality result is “inverse agonist”. Besides, at hCB1R, the pKd was 6.08. For the same compound, the pKd in assay [2] was 7.91.

For the compound `COc1cc(C(C)(C)[C@H](CCCCCN=[N+]=[N-])c2ccccc2)cc(OC)c1[C@H]1C=C(CNC(=O)CCCCCNC(=O)CCCCC[N+]2=C(/C=C/C=C/C=C3/N(CCCS(=O)(=O)O)c4ccc(S(=O)(=O)O)cc4C3(C)C)C(C)(CCCCS(=O)(=O)O)c3cc(S(=O)(=O)[O-])ccc32)[C@H]2C[C@@H]1C2(C)C` (stereo partly drawn) [Example 27, 1-(6-((6-((((1S,4S,5S)-4-(4-((R)-8-azido-2-methyl-3-phenyloctan-2-yl)-2,6-dimethoxyphenyl)-6,6-dimethylbicyclo[3.1.1]hept-2-en-2-yl)methyl)amino)-6-oxohexyl)amino)-6-oxohexyl)-2-((1E,3E)-5-((E)-3,3-dimethyl-5-sulfo-1-(3-sulfopropyl)indolin-2-ylidene)penta-1,3-dien-1-yl)-3-methyl-3-(4-sulfobutyl)-3H-indol-1-ium-5-sulfonate], the pKd on hCB1R is 5.15; in assay [2], 7.59.

Regarding `COc1cc(C(C)(C)[C@H](CCCCCN=[N+]=[N-])c2ccccc2)cc(OC)c1[C@H]1C=C(CNC(=O)CCCCCNC(=O)c2ccc3c(c2)C(=O)OC32c3ccc(N)c(S(=O)(=O)O)c3Oc3c2ccc(N)c3S(=O)(=O)O)[C@H]2C[C@@H]1C2(C)C` [Example 29, 3′,6′-diamino-5-((6-((((1S,4S,5S)-4-(4-((R)-8-azido-2-methyl-3-phenyloctan-2-yl)-2,6-dimethoxyphenyl)-6,6-dimethylbicyclo[3.1.1]hept-2-en-2-yl)methyl)amino)-6-oxohexyl)carbamoyl)-3-oxo-3H-spiro[isobenzofuran-1,9′-xanthene]-4′,5′-disulfonic acid], the pKd on hCB1R was 5.48; in assay [2] it was 7.60.
